Assay results reported in PMC3367934 (Molecular & Cellular Proteomics : MCP, 2012).

Tests used:
[1] = immune sera mixing experiment; format: in vivo, mouse; conditions: 6-week immune sera physically mixed 50:50
[2] = test system: antibodies in serum from dnaX-immunized mice; format: binding, mouse

Substance	distinguishability in 50:50 mixed sera [1]	ability to adsorb the signal from immune sera [2]	dnaX-specific peptides reduced in intensity by adsorption ([2]; of the 210 dnaX-specific peptides, beads bearing dnaX protein) [peptides]
PARYANANGRDLITLGIGSC	still distinguishable from the KLH-immunized mice		
Transferrin: irrelevant human protein used to adsorb the immune sera		Only the dnaX protein could adsorb the signal	
dnaX protein: recombinant dnaX protein produced in E. coli		Only the dnaX protein could adsorb the signal	35
